Assay results as given in US6372727B1, “Metalloporphyrin treatment of neurologic disease” (UAB Research Foundation, priority 1999, dated 2002).
“And” between values parts separate entries of the source, which are not always exact repeats. Equal values may be shown once.

Key:
[1] = MP-catalyzed peroxynitrite decomposition monitored at 302 nm; type: biochemical; conditions: 100 μM peroxynitrite
Experimental: Peroxynitrite (100 μM) was added to rapidly stirred cuvettes at 37° C. containing the indicated concentrations of MPs in 0.1 M potassium phosphate, pH 7.4. Ascorbate was added to 150 μM where indicated. Peroxynitrite decomposition was monitored at 302 nm using a Hewlett-Packard diode-array spectrophotometer. Apparent rates (kapparents^−1, average of n=3) were plotted versus MP concentration to determine rate constants in M^−1s^−1.
Reactions contained the indicated concentration of FeTCPPin 1.4 ml of 0.1 M potassium phosphate, pH 7.4 in the absence or presence to 150 μM ascorbic acid. Peroxynitrite (100 μM) was added to rapidly stirred cuvettes at 37° C. and the decay of peroxynitrite was monitored continuously at 302 nm. Decay data were fitted to the equation describing first order decay to obtain apparent decay rates (kapparent sec^−1). Apparent decay rates as a function of FeTCPP were fitted by linear regression and the rate constant was obtained slope of the line.
Peroxynitrite (100 μM) decomposition was determined at 302 nm using a Hewlett-Packard diode-array spectrophotometer fitted with a temperature-controlled cuvette chamber and a water-driven cuvette stirrer. Bolus additions of peroxynitrite were made to vigorously stirred cuvettes containing varying concentrations of MPs (see Table III) while data were collected at a rate of ten points/sec. […] Each reaction was repeated three times and only the first additions of peroxynitrite were averaged. Data were exported for fitting and plotting. Apparent rates of peroxynitrite decomposition were plotted as a function of metalloporphyrin concentration (as shown in FIG. 5) to determine concentration-independent rate constants at 37° C.
Rates of peroxynitrite (100 μM) decomposition were determined at different MP concentrations. Ascorbate was added to 150 μM where indicated. […] Apparent rate constants were plotted versus MP concentration (as in FIG. 5A,B) to determine true rate constants in M^−1s^−1±standard error.

[2] = Solubility and passage of membranes (statement); type: physicochemical
[3] = Ascorbate oxidation by MPs monitored at 266 nm; type: biochemical; conditions: MP 10 μM, 50 μM ascorbate, 0.1 M potassium phosphate pH 7.4, ± standard error, n=3
Experimental: (§1) In order to test the hypothesis that Mn(II)- or Fe(II)-porphyrins would be capable of carrying out two-electron reductions of peroxynitrite and thereby decreasing rather than increasing its reactivity, attempts were made to pre-reduce these transition metal-containing MPs prior to addition of peroxynitrite.
Table V. Ascorbate oxidation by MPs. MPs (10 μM) were added to stirred cuvettes containing 0.1 M potassium phosphate, pH 7.4 and 50 μM ascorbate. Ascorbate oxidation was monitored at 266 nm (ηm=17,700 M^−1cm^−1). Oxidation rates (±standard errors) were determined by fitting the initial linear portion of each curve and averaging the rates (n=3).

[4] = MP 5 μM, GSH 2 mM, 0.1 M potassium phosphate pH 7.4, 37° C.
Experimental: Aliquots (14 μl) were removed at 10 min intervals and added to 1.4 of 0.1 M potassium phosphate, pH 7.4 containing 0.2 mM dithionitrobenzoic acid (Ellman's Reagent) and 50 μM EDTA. GSH concentration was determined by the change in 430 nm absorbance. The extinction coefficient at 430 nm was determined to be 13,900 M^−1cm^−1 using a fresh GSH solution standardized by weight.
as §1

[5] = 100 μM DCDHF, pH 7.4, 37° C.
Experimental: A 14.5 mM stock solution of 2,7-dichlorodihydrofluorescein was prepared as described (24). Reaction solutions were prepared in rapidly stirred glass cuvettes and contained 100 μM of DCDHF and 2 μM of the indicated MP in 1.4 ml of 0.1 M potassium phosphate, pH 7.4 at 37° C. Peroxynitrite was added sequentially to rapidly stirred cuvettes; three seperate additions of 2 μM peroxynitrite were made followed by three seperate additions of 4 μM each (see Inset). DCDHF oxidation to dichlorofluorescein (DCF) was monitored at 500 nm (59,500 M^−1cm^−1) (24). Oxidative efficiency was defined as the moles of DCF formed per mole of peroxynitrite added and was determined for each peroxynitrite addition. The values shown represent the average of all six additions.
Dichlorodihydrofluorescein (DCDHF) undergoes a two-electron oxidation to yield the highly absorbing (and fluorescent) product dichlorofluorescein (DCF). DCDHF has been shown previously to be oxidized at an efficiency as high as 38% of added peroxynitrite (24) and was used here as an indicator to detect any changes in the total oxidative yield of peroxynitrite caused by metalloporphyrins.

[6] = Spectral scans of peroxynitrite-oxidized Mn porphyrins and re-reduction of Mn(IV); type: biochemical
Experimental: The peaks at 428 nm (left arrows) are due to Mn(IV)=O (15) whereas the 464 nm peaks (right arrows) are due to Mn(III). […] INSET: The indicated amounts of peroxynitrite were added to solutions of MnTBAP (10 μM) in phosphate buffer and the decrease in 464 nm absorbance was monitored at a data collection rate of 10 points/s. The maximal change in 464 nm absorbance associated with oxidation of Mn(III) to Mn(IV), which occurred in >1 s, was plotted versus peroxynitrite; the concentration at which no further absorbance change occurred was used to establish the reaction stoichiometry.

| Structure (SMILES) | Rate Constants for MP-Catalyzed Decomposition of Peroxynitrite (pH 7.4, 37° C.) ([1]; absence of added reductants) | passage of cell membranes and the blood-brain-barrier [2] | water solubility [2] | Rate of Ascorbate Oxidation [3] | rate of GSH oxidation [4] | Rate Constants for MP-Catalyzed Decomposition of Peroxynitrite (pH 7.4, 37° C.) ([1]; plus ascorbate 150 μM) | increase of total oxidant yield from peroxynitrite [5] | oxidant yield, of added peroxynitrite [5] | time to complete re-reduction to Mn(III) ([6]; 10 μM MP, peroxynitrite 20 μM alone) | time to complete re-reduction to Mn(III) ([6]; 50 μM H2O2 added before peroxynitrite) | time to complete re-reduction to Mn(III) ([6]; 50 μM nitrate added before peroxynitrite) | time to complete re-reduction to Mn(III) ([6]; 50 μM nitrite added before peroxynitrite) | time to complete re-reduction to Mn(III) ([6]; H2O2 and nitrate or H2O2 and nitrite added together) |
| --- | --- | --- | --- | --- | --- | --- | --- | --- | --- | --- | --- | --- | --- |
| O=C(O)c1ccc(-c2c3nc(c(-c4ccc(C(=O)O)cc4)c4ccc([n-]4)c(-c4ccc(C(=O)O)cc4)c4nc(c(-c5ccc(C(=O)O)cc5)c5ccc2[n-]5)C=C4)C=C3)cc1.[Fe+2] [FeTCPP, Iron (III) meso 5,10,15,20-tetrakis-(4-carboxy-phenyl) porphyrin] | 1.6×10^6 M^−1s^−1 and 2.9 × 10^6 M^−1s^−1 ± 0.4 M^−1s^−1 | readily cross cell membranes and the blood-brain-barrier | very water soluble | 5.8 µM/min | – | – | – | – | – | – | – | – | – |
| C[n+]1ccc(-c2c3nc(c(-c4cc[n+](C)cc4)c4ccc([n-]4)c(-c4cc[n+](C)cc4)c4nc(c(-c5cc[n+](C)cc5)c5ccc2[n-]5)C=C4)C=C3)cc1.[Cl-].[Cl-].[Cl-].[Cl-].[Cl-].[Mn+3] [MnTMPyP, Manganese (III) meso-tetra-(N-methyl-4-pyridyl)-porphine chloride] | – | – | – | 6.77 ± 0.33 µM/min | 22 µM/min | 1.8 × 10^6 ± 0.3 M^−1s^−1 | 2.2 fold | 83% | 30 s | 17 s | 74 s | 30 s | 17 s |
